What was measured:
Experiment in all cases: relative viability (nuclei count vs DMSO), 5 days (fraction); higher = more cells survive
RU-SKI 43 + Lapatinib = compound: CC[C@@H](C)CNCC(=O)N1CCC2=C([C@@H]1COC3=CC=CC(=C3)C)C=CS2 [RU-SKI 43] + CS(=O)(=O)CCNCc1ccc(-c2ccc3ncnc(Nc4ccc(OCc5cccc(F)c5)c(Cl)c4)c3c2)o1 [Lapatinib] (partner 2 µM)
Summary of the method: (§1)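 After 5 days of treatment, lung cancer cells in 1536-well plates were fixed and stained in a single step (final 0.05% Triton X-100, 1% formaldehyde, 1 ug/ml Hoechst) and their nuclei counted on 4× images. Treatment had been applied by pin tool the day after seeding as one drug alone or as a fixed anchor-drug dose with five library-drug doses (not always all listed) in √10 steps. Relative viability is the nuclei count of treated wells divided by that of vehicle wells, and values are medians of duplicate plates.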

Irinotecan + Trametinib = compound: CCc1c2c(nc3ccc(OC(=O)N4CCC(N5CCCCC5)CC4)cc13)-c1cc3c(c(=O)n1C2)COC(=O)[C@]3(O)CC [Irinotecan] + CC(=O)Nc1cccc(-n2c(=O)n(C3CC3)c(=O)c3c(Nc4ccc(I)cc4F)n(C)c(=O)c(C)c32)c1 [Trametinib] (partner 0.02 µM)
Summary of the method: as §1

MK-8033 + Luminespib = compound: Cn1cc(-c2cnc3ccc4ccc(CS(=O)(=O)NCc5ccccn5)cc4c(=O)c3c2)cn1 [MK-8033] + CCNC(=O)c1noc(-c2cc(C(C)C)c(O)cc2O)c1-c1ccc(CN2CCOCC2)cc1 [Luminespib] (partner 0.01 µM)
Summary of the method: as §1

MK-8033 + Dasatinib = compound: Cn1cc(-c2cnc3ccc4ccc(CS(=O)(=O)NCc5ccccn5)cc4c(=O)c3c2)cn1 [MK-8033] + Cc1nc(Nc2ncc(C(=O)Nc3c(C)cccc3Cl)s2)cc(N2CCN(CCO)CC2)n1 [Dasatinib] (partner 0.075 µM)
Summary of the method: as §1

Q: How did the relative viability (RU-SKI 43 + Lapatinib; first compound 0.1 µM) turn out when UMC-11 was run?
A: The relative viability was 1.05.

Q: What about the relative viability (RU-SKI 43 + Lapatinib; first compound 0.3162 µM) of the same cell line?
A: The relative viability was 1.01.

Q: And the relative viability (RU-SKI 43 + Lapatinib; first compound 1 µM)?
A: Its relative viability is 1.48.

Q: And the relative viability (RU-SKI 43 + Lapatinib; first compound 3.162 µM)?
A: Its relative viability is 0.918.

Q: What about the relative viability (RU-SKI 43 + Lapatinib; first compound 10 µM) of the same cell line?
A: Its relative viability is 0.764.

Q: What about the relative viability (Irinotecan + Trametinib; first compound 0.6325 µM) of the same cell line?
A: The relative viability was 0.32.

Q: What about the relative viability (Irinotecan + Trametinib; first compound 2 µM) of the same cell line?
A: The relative viability was 0.539.

Q: What about the relative viability (Irinotecan + Trametinib; first compound 6.325 µM) of the same cell line?
A: Its relative viability is 0.29.

Q: And the relative viability (Irinotecan + Trametinib; first compound 20 µM)?
A: The relative viability was 0.216.

Q: And the relative viability (MK-8033 + Luminespib; first compound 0.02 µM)?
A: Its relative viability is 1.03.

Q: What about the relative viability (MK-8033 + Luminespib; first compound 0.06325 µM) of the same cell line?
A: Its relative viability is 0.935.

Q: And the relative viability (MK-8033 + Luminespib; first compound 0.2 µM)?
A: Its relative viability is 1.03.

Q: And the relative viability (MK-8033 + Luminespib; first compound 2 µM)?
A: The relative viability was 0.988.

Q: And the relative viability (MK-8033 + Dasatinib; first compound 0.02 µM)?
A: Its relative viability is 0.448.

Q: And the relative viability (MK-8033 + Dasatinib; first compound 0.06325 µM)?
A: The relative viability was 0.378.

Q: What about the relative viability (MK-8033 + Dasatinib; first compound 0.2 µM) of the same cell line?
A: The relative viability was 0.421.

Q: And the relative viability (MK-8033 + Dasatinib; first compound 2 µM)?
A: Its relative viability is 0.413.

From the supplement of paper PMC10307832
